Biological target: recombinant human SAE enzyme (Homo sapiens (Human), UniProt Q9UBT2)
Experiment: SAE HTRF enzyme assay
Assay type: biochemical
Details: for inhibition at 0.111 µM: read-out: Percent Inhibition
Procedure, shortened: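 0.11 nM SAE incubated with 0.5 μM ATP, 0.01 μM Ubc9-GST and 0.125 μM Sumo-Flag in HEPES pH 7.5, MgCl2, GSH, BSA, ±inhibitor, 105 min at 24° C. EDTA stop; Eu-cryptate anti-Flag/XL-APC anti-GST HTRF read after 2 h. Values given as single-concentration % inhibition or IC50.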

Sequence of recombinant human SAE enzyme (Q9UBT2 whole entry): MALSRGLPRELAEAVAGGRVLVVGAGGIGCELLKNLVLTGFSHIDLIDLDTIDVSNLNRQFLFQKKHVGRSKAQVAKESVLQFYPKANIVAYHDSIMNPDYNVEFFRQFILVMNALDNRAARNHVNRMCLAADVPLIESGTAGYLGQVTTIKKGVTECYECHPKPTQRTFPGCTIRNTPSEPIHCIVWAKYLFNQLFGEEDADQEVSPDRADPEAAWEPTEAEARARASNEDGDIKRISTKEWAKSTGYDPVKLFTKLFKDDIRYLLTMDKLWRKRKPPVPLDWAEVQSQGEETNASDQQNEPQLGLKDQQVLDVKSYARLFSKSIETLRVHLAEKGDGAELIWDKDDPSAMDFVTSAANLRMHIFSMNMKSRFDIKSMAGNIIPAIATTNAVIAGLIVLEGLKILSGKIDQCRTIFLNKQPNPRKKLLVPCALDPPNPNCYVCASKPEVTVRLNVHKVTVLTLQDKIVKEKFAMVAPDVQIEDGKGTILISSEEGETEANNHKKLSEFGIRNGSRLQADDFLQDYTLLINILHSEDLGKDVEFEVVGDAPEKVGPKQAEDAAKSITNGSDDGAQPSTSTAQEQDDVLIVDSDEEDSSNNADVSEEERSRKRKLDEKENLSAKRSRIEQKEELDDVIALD
Sequence of recombinant human SAE enzyme (Q9UBE0 whole entry partner): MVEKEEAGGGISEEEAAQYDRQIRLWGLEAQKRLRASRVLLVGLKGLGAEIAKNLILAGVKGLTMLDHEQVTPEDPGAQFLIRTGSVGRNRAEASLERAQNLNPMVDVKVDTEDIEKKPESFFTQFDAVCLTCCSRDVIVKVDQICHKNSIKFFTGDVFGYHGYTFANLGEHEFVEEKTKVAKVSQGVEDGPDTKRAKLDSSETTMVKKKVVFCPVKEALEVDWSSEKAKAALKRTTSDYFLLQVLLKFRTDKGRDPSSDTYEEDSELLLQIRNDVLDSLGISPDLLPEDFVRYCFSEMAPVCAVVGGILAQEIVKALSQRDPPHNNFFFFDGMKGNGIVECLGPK

Structure (SMILES) | inhibition at 0.111 µM (Concentration 0.111 μM) | IC50 (class symbols A/B/C) | Percent Inhibition (SAE inhibition at compound concentration 0.111 μM) | IC50 (SAE inhibition, class symbols, legend in nM) | Percent Inhibition (Concentration 0.111 μM)
NS(=O)(=O)OC[C@H]1C[C@@H](Nc2ncncc2C(=O)c2ccc(-c3ccccc3)o2)[C@H](O)[C@@H]1O [I-134, [(1R,2R,3S,4R)-2,3-dihydroxy-4-{[5-(5-phenyl-2-furoyl)pyrimidin-4-yl]amino}cyclopentyl]methyl sulfamate] | 94% | < 10 nM | – | – | –
COc1ccc2c(n1)[C@H](c1cc(C(=O)c3cncnc3N[C@@H]3C[C@H](COS(N)(=O)=O)[C@@H](O)C3)sc1C)OCC2 (mixture of isomers) [I-339, [(1R,2S,4R)-2-hydroxy-4-{[5-({4-[(8S)-2-methoxy-5,8-dihydro-6H-pyrano[3,4-b]pyridin-8-yl]-5-methyl-2-thienyl}carbonyl)pyrimidin-4-yl]amino}cyclopentyl]methyl sulfamate and [(1R,2S,4R)-2-hydroxy-4-{[5-({4-[(8R)-2-methoxy-5,8-dihydro-6H-pyrano[3,4-b]pyridin-8-yl]-5-methyl-2-thienyl}carbonyl)pyrimidin-4-yl]amino}cyclopentyl]methyl sulfamate] | – | – | 99% | < 10 nM | –
Cc1cccc(Cc2coc(C(=O)c3cncnc3N[C@@H]3C[C@H](COS(N)(=O)=O)[C@@H](O)C3)c2)c1 [I-57, [(1R,2S,4R)-2-hydroxy-4-({5-[4-(3-methylbenzyl)-2-furoyl]pyrimidin-4-yl}amino)cyclopentyl]methyl sulfamate] | 98% | – | – | – | –
C[C@](O)(c1csc(C(=O)c2cncnc2N[C@@H]2C[C@H](COS(N)(=O)=O)[C@@H](O)[C@H]2O)c1)c1cccc(Br)n1 (single isomer, unassigned) [I-1a, [(1R,2R,3S,4R)-4-{[5-({4-[(1S)-1-(6-bromopyridin-2-yl)-1-hydroxyethyl]-2-thienyl}carbonyl)pyrimidin-4-yl]amino}-2,3-dihydroxycyclopentyl]methyl sulfamate or [(1R,2R,3S,4R)-4-{[5-({4-[(1R)-1-(6-bromopyridin-2-yl)-1-hydroxyethyl]-2-thienyl}carbonyl)pyrimidin-4-yl]amino}-2,3-dihydroxycyclopentyl]methyl sulfamate] | – | < 10 nM | – | – | 96
Cc1sc(C(=O)c2cncnc2N[C@@H]2C[C@H](COS(N)(=O)=O)[C@@H](O)C2)cc1CN1CCc2cc(Cl)ccc21 [I-159, [(1R,2S,4R)-4-{[5-({4-[(5-chloro-2,3-dihydro-1H-indol-1-yl)methyl]-5-methyl-2-thienyl}carbonyl)pyrimidin-4-yl]amino}-2-hydroxycyclopentyl]methyl sulfamate] | 91% | < 10 nM | – | – | –
NS(=O)(=O)OC[C@H]1C[C@@H](Nc2ncncc2C(=O)c2ccc(Cc3ccccc3)o2)[C@H](O)[C@@H]1O [I-87, [(1R,2R,3S,4R)-4-{[5-(5-benzyl-2-furoyl)pyrimidin-4-yl]amino}-2,3-dihydroxycyclopentyl]methyl sulfamate] | 94% | – | – | – | –
NS(=O)(=O)OC[C@H]1C[C@@H](Nc2ncncc2C(=O)c2cc([C@@]3(c4ccccc4)CCCO3)cs2)C[C@@H]1O (single isomer, unassigned) [I-32b, [(1R,2S,4R)-2-hydroxy-4-{[5-({4-[(2S)-2-phenyltetrahydrofuran-2-yl]-2-thienyl}carbonyl)pyrimidin-4-yl]amino}cyclopentyl]methyl sulfamate or [(1R,2S,4R)-2-hydroxy-4-{[5-({4-[(2R)-2-phenyltetrahydrofuran-2-yl]-2-thienyl}carbonyl)pyrimidin-4-yl]amino}cyclopentyl]methyl sulfamate] | – | 10 to 100 nM | – | – | 90
CC(C)Oc1ccccc1OCc1csc(C(=O)c2cncnc2N[C@@H]2C[C@H](COS(N)(=O)=O)[C@@H](O)C2)c1 [I-201, [(1R,2S,4R)-2-hydroxy-4-{[5-({4-[(2-isopropoxyphenoxy)methyl]-2-thienyl}carbonyl)pyrimidin-4-yl]amino}cyclopentyl]methyl sulfamate] | 60% | 10 to 100 nM | – | – | –
NS(=O)(=O)OC[C@H]1C[C@@H](Nc2ncncc2C(=O)c2cc(C(O)c3cccc(Cl)n3)cs2)C[C@@H]1O (single isomer, unassigned) [I-29b, [(1R,2S,4R)-4-{[5-({4-[(S)-(6-chloropyridin-2-yl)(hydroxy)methyl]-2-thienyl}carbonyl)pyrimidin-4-yl]amino}-2-hydroxycyclopentyl]methyl sulfamate or [(1R,2S,4R)-4-{[5-({4-[(R)-(6-chloropyridin-2-yl)(hydroxy)methyl]-2-thienyl}carbonyl)pyrimidin-4-yl]amino}-2-hydroxycyclopentyl]methyl sulfamate] | – | < 10 nM | – | – | 99
N[C@H](c1cccc(Cl)c1)c1csc(C(=O)c2cncnc2N[C@@H]2C[C@H](COS(N)(=O)=O)[C@@H](O)C2)c1 (single isomer, unassigned) [I-36b, [(1R,2S,4R)-4-{[5-({4-[(R)-amino(3-chlorophenyl)methyl]-2-thienyl}carbonyl)pyrimidin-4-yl]amino}-2-hydroxycyclopentyl]methyl sulfamate or [(1R,2S,4R)-4-{[5-({4-[(S)-amino(3-chlorophenyl)methyl]-2-thienyl}carbonyl)pyrimidin-4-yl]amino}-2-hydroxycyclopentyl]methyl sulfamate] | – | < 10 nM | – | – | 99
CC(C)(O)c1ccc(C(=O)c2cncnc2N[C@@H]2C[C@H](COS(N)(=O)=O)[C@@H](O)[C@H]2O)s1 [I-202, {(1R,2R,3S,4R)-2,3-dihydroxy-4-[(5-{[5-(2-hydroxypropan-2-yl)-2-thienyl]carbonyl}pyrimidin-4-yl)amino]cyclopentyl}methyl sulfamate] | 60% | 10 to 100 nM | – | – | –
NS(=O)(=O)OC[C@H]1C[C@@H](Nc2ncncc2C(=O)c2cc(Cn3ccc4cccnc43)cs2)C[C@@H]1O [I-92, {(1R,2S,4R)-2-hydroxy-4-[(5-{[4-(1H-pyrrolo[2,3-b]pyridin-1-ylmethyl)-2-thienyl]carbonyl}pyrimidin-4-yl)amino]cyclopentyl}methyl sulfamate] | 98% | < 10 nM | – | – | –
Cc1cccc(Cc2cc(C(=O)c3cncnc3N[C@@H]3C[C@H](COS(N)(=O)=O)[C@@H](O)C3)sc2C)c1 [I-45, {(1R,2S,4R)-2-hydroxy-4-[(5-{[5-methyl-4-(3-methylbenzyl)-2-thienyl]carbonyl}pyrimidin-4-yl)amino]cyclopentyl}methyl sulfamate] | 99% | < 10 nM | – | – | –
NS(=O)(=O)OC[C@H]1C[C@@H](Nc2ncncc2C(=O)c2cc([C@H](O)c3cccc(Cl)c3)c(Cl)s2)C[C@@H]1O (single isomer, unassigned) [I-9b, [(1R,2S,4R)-4-{[5-({5-chloro-4-[(R)-(3-chlorophenyl)(hydroxy)methyl]-2-thienyl}carbonyl)pyrimidin-4-yl]amino}-2-hydroxycyclopentyl]methyl sulfamate or [(1R,2S,4R)-4-{[5-({5-chloro-4-[(S)-(3-chlorophenyl)(hydroxy)methyl]-2-thienyl}carbonyl)pyrimidin-4-yl]amino}-2-hydroxycyclopentyl]methyl sulfamate] | – | < 10 nM | – | – | 97

— patent US10780090B2, “Heteroaryl compounds useful as inhibitors of SUMO activating enzyme” (Millennium Pharmaceuticals, Inc., priority 2014, dated 2020)
